Legend:
rats [1] = test: Cortical spreading depression (CSD) migraine model; format: in vivo
Procedure: The cortical spreading depression model is utilized to investigate whether treatment with compounds of the present invention affect electrophysiological and hemodynamic events in a rat model of migraine.
Rats were anesthetized with 5% isoflurane (in 70% N2O and 30% O2; flow 300 ml/min) and placed in a stereotactic frame. […] The rectal temperature was maintained at 37.0±1.0° C. with a homeothermic blanket system. The skin was opened by a medial incision and retracted laterally. Three burr holes were drilled under saline cooling over the right hemisphere at the following coordinates (mm from bregma): (1) posterior 4.5, lateral, 2.0 (occipital cortex): KCl application site; (2) posterior 0.5, lateral 2.0 (parietal cortex): LDF recording site; (3) anterior 2, lateral 2 (frontal cortex): DC potential recording site. A laser-Doppler flow probe (Oxyflow, Oxford Optronics, UK) to monitor CBF and an invasive Ag/AgCl electrode for measuring direct current (DC) potential shifts were placed in the parietal and frontal cortex burr holes on the intact dura and in the cortex, respectively. The laser-Doppler flow probe was positioned in an area free of large pial and dural vessels to minimize a large-vessel contribution to the signal. For the DC-potential measurement, a reference electrode was fixed in the neck. Dura overlying the occipital cortex was gently removed and care was taken to avoid bleeding. After surgical preparation, the cortex was allowed to recover for 15 minutes under saline irrigation. A cotton ball (2 mm diameter) soaked with 1M KCl was placed on the pial surface and kept moist by placing 5 μl of KCl solution every 15 minutes. Test compound or vehicle was administered ten (10) minutes prior to CSD initiation. […] The number of KCl-induced CSDs was counted for 2 hours. The CBF and DC-potentials were monitored continuously starting from 5 minutes before KCl exposure.
Test compound E1-1.2 was administered as a mesylate salt (mpk based on molecular weight of the mesylate salt).
The data was collected in Windaq acquisition software (Dataq Instruments, USA) at 20 kHz. The raw data was analyzed in Clampfit program (Axon Instruments, USA). The signals were low pass filtered (cut off range 5-10000 Hz) that CSD episodes in DC and CBF could be confirmed. The following parameters were analyzed: i) the number, duration and amplitude of DC-potentials, and ii) the number and amplitude of CBF events.

hERG channel = hERG channel (Homo sapiens (Human), UniProt Q12809); test: hERG channel inhibition, whole cell patch clamp; format: cell-based; conditions: 10 μM compound
Sequence of hERG channel (Q12809 whole entry): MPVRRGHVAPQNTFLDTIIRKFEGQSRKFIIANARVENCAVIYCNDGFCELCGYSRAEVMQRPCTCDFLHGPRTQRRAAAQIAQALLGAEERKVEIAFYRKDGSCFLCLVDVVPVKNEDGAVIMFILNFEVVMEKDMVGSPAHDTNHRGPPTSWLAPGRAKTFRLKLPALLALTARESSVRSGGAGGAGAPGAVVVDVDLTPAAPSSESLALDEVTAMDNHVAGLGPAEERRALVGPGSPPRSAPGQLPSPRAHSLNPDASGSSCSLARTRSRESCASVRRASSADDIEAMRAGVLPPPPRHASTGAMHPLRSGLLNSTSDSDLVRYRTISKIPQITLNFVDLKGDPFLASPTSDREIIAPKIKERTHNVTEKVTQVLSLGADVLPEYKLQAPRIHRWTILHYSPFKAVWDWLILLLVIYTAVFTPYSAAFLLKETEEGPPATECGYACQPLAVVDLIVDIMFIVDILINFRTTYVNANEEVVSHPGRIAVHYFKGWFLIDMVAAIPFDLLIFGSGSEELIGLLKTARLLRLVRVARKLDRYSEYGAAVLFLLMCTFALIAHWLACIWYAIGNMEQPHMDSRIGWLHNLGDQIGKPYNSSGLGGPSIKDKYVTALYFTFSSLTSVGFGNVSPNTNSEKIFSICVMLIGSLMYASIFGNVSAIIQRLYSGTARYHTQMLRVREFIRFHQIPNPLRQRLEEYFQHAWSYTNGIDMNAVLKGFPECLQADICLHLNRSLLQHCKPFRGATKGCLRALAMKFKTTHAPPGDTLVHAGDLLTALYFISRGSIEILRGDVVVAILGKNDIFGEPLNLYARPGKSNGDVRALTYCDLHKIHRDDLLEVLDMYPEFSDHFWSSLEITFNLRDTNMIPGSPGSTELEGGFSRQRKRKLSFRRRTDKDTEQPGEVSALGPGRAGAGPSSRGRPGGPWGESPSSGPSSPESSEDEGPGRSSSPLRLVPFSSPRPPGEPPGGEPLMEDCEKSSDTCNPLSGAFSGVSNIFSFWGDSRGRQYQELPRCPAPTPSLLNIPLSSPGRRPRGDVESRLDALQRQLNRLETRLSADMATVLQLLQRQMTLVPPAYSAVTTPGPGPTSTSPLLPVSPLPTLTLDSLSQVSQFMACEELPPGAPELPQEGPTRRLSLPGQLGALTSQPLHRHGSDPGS
Procedure: The assay was performed on hERG channel stably expressed in HEK293 cells. The cells were cultured at 37° C. in a humidified CO2 incubator in the growth medium consisting of DMEM, 10% fetal bovine serum and antibiotics. Prior to the assay, the cells were seeded onto a 12 mm PDL-coated glass coverslip and cultured in a 35 mm Petri dish. After 16 to 40 hr culture, the cover slip was transferred into the chamber of OctaFlow perfusion system (ALA Instrument) and under a constant flow of extracellular solution (140 mM NaCl, 4 mM KCl, 1 mM MgCl2, 2 mM CaCl2, 10 mM HEPES, 10 mM D-glucose, pH 7.35, osmolarity 290). Whole cell patch clamping was performed with a glass micropipette filled with intracellular solution (120 mM KCl, 1.75 mM MgCl2, 5.4 mM CaCl2, 10 mM HEPES, 10 mM EGTA, and 4 mM ATP-K2, PH 7.2, osmolarity 310). Giga-seal was maintained during the test. The voltage control and current measurement were carried out using Axon amplifier 700B, Digidata 1440A and CLAMPEX10 software (Molecular Devices). Whole-cell hERG currents were recorded following the Petroski protocol: the cell was held at −80 mV, and the voltage step jumped from −80 to 30 mV and stay for 2 sec with a 20 ms prepulse at −40 mV. After depolarization, the voltage was decreased to −40 mV and stay for 2 sec, and returned back to −80 mV. Test compound was applied by quartz capillary tubes tip (200 μm inner diameter), and the flow rate was controlled at 2-3 ml/min with OctaFlow perfusion system. Different concentrations of the compound were applied to the cells for 5 min and the hERG current was measured three times before, during and after compound treatment. The data were analyzed using Clampfit 10 software (Molecular Devices) to generate IC50 values.

rats [2] = test: Pentylenetetrazole (PTZ) Seizure Test; format: in vivo; conditions: 10 mg/kg p.o. 30 min before PTZ 100 mg/kg s.c.
Procedure: Rats, placed in individual macrolon cages (25×19×13 cm), were injected with pentylenetetrazole (PTZ) (100 mg/kg s.c.). The occurrence and latency of clonic and tonic convulsions and death were noted over a 30 minute period. 15 rats were studied per group. The test was performed blind.
(§1) Test compound E1-8.2 was administered as the free base.
Compounds were evaluated typically using 0.5% dimethylsulfoxide, 4% hydroxypropyl-b-cyclodextrin water as a vehicle at 1 or more doses (e.g., 1, 3 and 10 mg/kg), administered p.o. 30 minutes before PTZ, and compared with a vehicle control group. Diazepam (16 mg/kg p.o.), administered 60 minutes before PTZ, was used as reference substance. The experiment was performed over 2 separate sub-experiments with N=7 to 8 animals per group and per sub-experiment. Quantitative data (latencies) with the test substance was analyzed by comparing treated groups with vehicle control using Kruskal-Wallis test followed by Mann-Whitney U test. Quantitative data with the reference substance was analyzed using Mann-Whitney U test. Quantal data (frequencies) was analyzed by comparing treated groups with vehicle control using Fisher's Exact Probability tests (*=p<0.05; **=p<0.01; ***=p<0.001).

rats [3] = test: Electroconvulsive Threshold Test (ECT); format: in vivo; conditions: 3, 10 and 30 mpk p.o., mesylate salt
Procedure: as §1
Rats were administered ECS (rectangular current: 0.6 ms pulse width, 1.5 s duration, 200 Hz) via earclip electrodes connected to a constant current shock generator (Ugo Basile: type 7801). Test compounds were administered by oral gavage (p.o.) 1 hour before the test at a dose volume of 5 mL/kg.
Treatment groups of 20 rats were exposed to ECS as follows: The first animal was exposed to 30 mA of ECS. […] (increases of 5 mA) until the first tonic convulsion was observed. Once the first tonic convulsion was observed, the intensity of ECS was decreased by 2 mA for the next animal and then decreased or increased by 2 mA from animal to animal depending on whether the previous animal convulsed or not. If the first animal did convulse (tonic convulsions) within 5 seconds, animal no 2 is exposed to 25 mA, etc. . . . (decreases of 5 mA) until the absence of tonic convulsions was observed. At this point, the intensity of ECS was increased by 2 mA for the next animal and then decreased or increased by 2 mA from animal to animal depending on whether the previous animal convulsed or not. The minimum current intensity applied is 5 mA and the maximum 95 mA. The first 5 animals serve to approach threshold current and were not included in the analysis. The results are presented as the mean current intensity administered to the final 15 animals of a group. The test was performed blind. A positive percent change indicates an anticonvulsant effect. A negative percent change indicates a proconvulsant effect. The test substance was evaluated at 4 doses, typically using 0.5% dimethylsulfoxide, 4% hydroxypropyl-b-cyclodextrin water as a vehicle, and administered p.o. 60 minutes before ECS, and compared with a vehicle control group. Diazepam (16 mg/kg p.o.), administered under the same experimental conditions, was used as reference substance. The experiment included 6 groups. Data with the test substance was analyzed by comparing treated groups with vehicle control using one-way ANOVA followed by Dunnett's t tests.

CYP2D6 = CYP2D6 (Homo sapiens (Human), UniProt P10635); test: CYP P450 enzyme inhibition in pooled human liver microsomes; format: in vitro ADME; conditions: 10 μM compound, pooled HLM
Sequence of CYP2D6 (P10635 whole entry): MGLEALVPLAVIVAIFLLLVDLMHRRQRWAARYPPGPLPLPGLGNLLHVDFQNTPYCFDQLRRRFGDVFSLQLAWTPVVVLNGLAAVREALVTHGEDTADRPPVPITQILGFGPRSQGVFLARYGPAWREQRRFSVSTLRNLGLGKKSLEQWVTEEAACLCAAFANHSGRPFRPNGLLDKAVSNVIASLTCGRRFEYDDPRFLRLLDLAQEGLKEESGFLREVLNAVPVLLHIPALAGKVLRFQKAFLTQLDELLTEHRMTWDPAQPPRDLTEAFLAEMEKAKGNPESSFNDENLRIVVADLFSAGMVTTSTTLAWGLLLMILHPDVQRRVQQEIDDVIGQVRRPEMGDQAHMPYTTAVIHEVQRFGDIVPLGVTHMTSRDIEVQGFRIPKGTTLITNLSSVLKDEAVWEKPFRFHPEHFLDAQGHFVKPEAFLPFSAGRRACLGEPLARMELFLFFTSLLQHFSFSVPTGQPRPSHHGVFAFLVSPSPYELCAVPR
Procedure: Those CYP isoforms and their corresponding probe substrates are as follows: CYP1A2 (phenacetin, 30 μM), CYP2C9 (tolutamide, 100 μM), CYP2C19 (S-mephenytoin, 40 μM), CYP2D6 (dextromethorphan, 5 μM) and CYP3A4 (midazolam, 1 μM). All probe substrates were used at concentrations near or below their Kms. For experiment, a reaction mixture of test compound at 10 μM or in serial dilution, CYP probe substrate described above and 0.2 mg/mL pooled HLM in phosphate buffer, pH 7.4 in a final volume of 200 μL was pre-incubated at 37° C. for 10 minutes in triplicate. The reaction was initiated by addition of NADPH at final concentration of 1 mM. The reaction was terminated after 10 minutes (CYP1A2, CYP2D6 and CYP3A4) or 30 minutes (CYP2C9 and CYP2C19) by addition of 100 μL ice-cold acetonitrile with internal standard (IS). The samples were then centrifuged at 13,000 rpm and the supernatants were injected to LC-MS/MS (Agilent Technologies) to quantify the concentration of the specific metabolites of the probe substrates formed by individual CYP450 isoforms. The inhibition ratio is calculated as: (Mt−M0)/Mwater×100% in which Mt and M0 represent the concentrations of the specific probe substrate metabolite, which was formed by individual CYP450 isoform, at the beginning and end of the reaction in the presence of test compound; while Mwater represents the concentration of the specific metabolite at the end of the reaction in the absence of test compound. Test compound concentration-dependent response data experiments performed in triplicate.

rats [4] = test: Rat formalin model; format: in vivo; conditions: each of 10, 30 and 60 mpk i.p., mesylate salt
Procedure: The rat formalin model is a tonic model of continuous pain resulting from formalin-induced spontaneous nociceptive behaviors. Intra-paw injection of formalin is a commonly used model to measure spontaneous nociceptive behaviors in rodents (Dubuisson, D. and Dennis, S. G. Pain 4:161, 1977). Subcutaneous plantar injection of formalin causes a bi-phasic nocifensive behavioral response in rodents. The early phase (phase-1) lasts for about 5-10 min following which an interphase occurs without any discernible nociceptive reactions after which the late phase (phase-II) nociceptive reaction ensues continuing from about 20-60 min following formalin injection. Formalin model is a model of tonic, persistent pain, and is widely used for rapid screening of novel analgesic compounds. […] In the present example, effects of test item were assessed in 0-5 minutes from the early phase (phase-I) and 20-35 minutes from the late phase (phase-II) of formalin-induced nociceptive behavior. […]
For all groups, animals were acclimated to the observation chamber for 15 minutes immediately prior to formalin injection. All animals received an intraplantar subcutaneous injection of 50 μL of 5% formalin into the left hind paw and then placed immediately into an observation chamber and formalin-evoked spontaneous nociceptive behaviors in the rats were continuously recorded for 0-60 min using a commercial camcorder. […]

rats [5] = test: Haloperidol-induced Catalepsy (HIC) model; format: in vivo; conditions: 8 mg/kg p.o. 60 minutes before the test
Excerpt: The Haloperidol-induced Catalepsy (HIC) model detects antipsychotic activity and the action of NR2B selective antagonists (Steece-Collier et al. Exp. Neurol. 163: 239, 2000) and was based on methods described by Chermat and Simon (J. Pharmacol., 6, 493-496, 1975). The capacity to induce catalepsy serves as an index of the liability of a test substance to induce extrapyramidal side-effects, in particular Parkinsonism. Antagonism of antipsychotic-induced catalepsy can thus serve to detect anti-Parkinson potential.
Rats were injected with haloperidol (1 mg/kg i.p.) and were examined for catalepsy at 30 minute intervals up to 360 minutes. Presence (+) or absence (−) of catalepsy was assessed by three procedures: 1) imposed crossing of the ipsilateral fore- and hind-limbs; 2) placing the animal in the Buddha position; 3) the tilting board, an automatic device that, 5 seconds after positioning the rat, displaces the rat from a horizontal to vertical position and back while it clings to a wire grid with its front paws. Akinesia and catalepsy were assessed depending on whether or not the animal moves before (akinesia) or during operation of the board (catalepsy). […]
Amphetamine (8 mg/kg p.o.), administered 60 minutes before the test (i.e. 90 minutes before the first measurement), was used as reference substance. […] Data with the reference substance were analyzed using Mann-Whitney U tests.

[6] = E1-1.2 at various doses, MK-801 1.25 mg/kg

Cc1ccc(COC(=O)N2CC[C@H](CNc3nccn4cnnc34)C(F)(F)C2)cc1 [Compound E1-1.2, (+)-R-4-methylbenzyl 4-(([1,2,4]triazolo[4,3-a]pyrazin-8-ylamino)methyl)-3,3-difluoropiperidine-1-carboxylate]
magnitude of CBF vs vehicle (rats [1]): unchanged
number of DC potentials vs vehicle group (rats [1]; 3 mpk, 10 mpk and 30 mpk, mesylate salt): significantly decreased
number of CBF events vs vehicle (rats [1]; E1-1.2 at 10 mg/kg, MK-801 at 1.25 mg/kg): decreased
amplitude of DC potentials vs vehicle (rats [1]; [6]): not statistically different compared to vehicle
duration of DC potentials vs vehicle (rats [1]; [6]): not statistically different compared to vehicle
hERG @ 10 μM (%) (hERG channel): 17%
change in latency to death (rats [2]): +35%
change in number of deaths vs vehicle controls (rats [2]): −91%
activity on electroconvulsive threshold (rats [3]): robust anticonvulsant activity
CYP2D6 @ 10 μM (%) (CYP2D6): 14%
cumulative time spent on nociceptive behavior in phase I (0-5 mins) (rats [4]): decreased
cumulative time spent on nociceptive behavior in phase II (20-35 mins) (rats [4]): decreased

CC(N)Cc1ccccc1 (stereo not shown) [amphetamine]
anticataleptic activity (rats [5]): showed the expected robust anticataleptic activity
